# Structures can show the parent of a compound that is named as a salt.
# Target: T1, Son of Sevenless (SOS) (Homo sapiens, UniProt Q07889)
# T1 sequence (Q07889 564-1049 limits assumed): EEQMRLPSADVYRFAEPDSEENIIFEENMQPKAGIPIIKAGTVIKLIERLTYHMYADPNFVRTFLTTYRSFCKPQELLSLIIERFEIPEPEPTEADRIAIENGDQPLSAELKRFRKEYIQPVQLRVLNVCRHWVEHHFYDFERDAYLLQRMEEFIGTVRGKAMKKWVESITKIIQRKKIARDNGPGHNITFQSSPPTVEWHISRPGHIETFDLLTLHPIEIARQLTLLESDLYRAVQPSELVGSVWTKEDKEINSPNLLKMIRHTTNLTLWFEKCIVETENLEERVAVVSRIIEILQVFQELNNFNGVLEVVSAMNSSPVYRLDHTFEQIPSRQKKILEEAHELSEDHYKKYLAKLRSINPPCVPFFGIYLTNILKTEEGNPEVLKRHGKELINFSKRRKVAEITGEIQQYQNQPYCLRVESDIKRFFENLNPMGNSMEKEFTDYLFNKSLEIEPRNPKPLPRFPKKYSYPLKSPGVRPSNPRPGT
# Experiment: Binding to SOS, fluorescence polarization anisotropy (FPA) probe displacement
# Conditions: displacement of FITC-conjugated probe (Example 285), affinity calculated from IC50
# Description: Compounds of the present invention were tested for their ability to bind to the Ras guanine exchange factor (GEF) Son of Sevenless (SOS). Binding to SOS was measured using a Fluorescence polarization anisotropy (FPA) assay that assesses the ability of a test compound to displace a fluorescent FITC-conjugated compound (Example 285). Briefly, the labeled probe compound is incubated with SOS in buffer. Changes in anisotropy indicative of displacement of the labeled probe for a test compound are assessed over a dose range of test compound. Data was analyzed by plotting fluorescence anisotropy values as a function of compound concentration. IC50 values were determined using a four-parameter dose-response (variable slope) and binding affinities were calculated from this IC50 value. This assay is performed in a method analogous to the assay disclosed in: Burns, M. C.; Sun, Q.; Daniels, R. N.; Camper, D. V.; Kennedy, J. P.; Phan, J.; Olejniczak, E. O.; Lee, T.; Waterson, A. G.; Rossanese, O. W.; Fesik, S. W. “Approach for targeting Ras with small molecules that activate SOS-mediated nucleotide exchange” Proc. Natl. Acad. Sci. 2014; 11(9): 3401-3406. PMCID: PMC3948241.
row,SMILES,Ki
1,"N[C@@H](Cc1ccccc1)c1cc(Cl)cc2c1nc(N1CCNCC1)n2Cc1ccc(F)c(Cl)c1 [Example 166, (S)-1-(6-chloro-1-(3-chloro-4-fluorobenzyl)-2-(piperazin-1-yl)-1H-benzo[d]imidazol-4-yl)-2-phenylethan-1-amine trifluoroacetate]",500 to 1000 nM
2,"COC(=O)c1cnn(CC(C)C)c1-c1cc(C)cc2c1nc(N1CCNCC1)n2Cc1ccc(F)c(Cl)c1 [Example 179, methyl 5-(1-(3-chloro-4-fluorobenzyl)-6-methyl-2-(piperazin-1-yl)-1H-benzo[d]imidazol-4-yl)-1-isobutyl-1H-pyrazole-4-carboxylate]",500 to 1000 nM
3,"CCCNC(=O)c1cnn(CC(C)C)c1-c1cc(C)cc2c1nc(N1CCNCC1)n2Cc1cc(C)c(F)c(C)c1 [Example 181, 5-(1-(4-fluoro-3,5-dimethylbenzyl)-6-methyl-2-(piperazin-1-yl)-1H-benzo[d]imidazol-4-yl)-1-isobutyl-N-propyl-1H-pyrazole-4-carboxamide trifluoroacetate]",500 to 1000 nM
4,"Cc1cc2nc(S(=O)(=O)CCN)n(Cc3ccc(F)c(Cl)c3)c2cc1C [Example 211, 2-((1-(3-chloro-4-fluorobenzyl)-5,6-dimethyl-1H-benzo[d]imidazol-2-yl)sulfonyl)ethan-1-amine trifluoroacetate]",> 5000 nM
5,"Cc1cc2nc(N3C[C@@H](C)N[C@@H](C)C3)n(Cc3cc(C)c(F)c(C)c3)c2cc1C [Example 336, 2-((3S,5R)-3,5-dimethylpiperazin-1-yl)-1-(4-fluoro-3,5-dimethylbenzyl)-5,6-dimethyl-1H-benzo[d]imidazole]",1000 to 5000 nM

# Other lines, results leading:
row,Ki,SMILES
1,500 to 1000 nM,"Cc1cc(N2CCN(C(C)C)CC2)c2nc(N3CCNCC3)n(Cc3cc(C)c(F)c(C)c3)c2c1 [Example 194, 1-(4-fluoro-3,5-dimethylbenzyl)-4-(4-isopropylpiperazin-1-yl)-6-methyl-2-(piperazin-1-yl)-1H-benzo[d]imidazole trifluoroacetate]"
2,500 to 1000 nM,"Cc1cc(OCCNCCO)c2nc(N3CCNCC3)n(Cc3cc(C)c(F)c(C)c3)c2c1 [Example 199, 2-((2-((1-(4-fluoro-3,5-dimethylbenzyl)-6-methyl-2-(piperazin-1-yl)-1H-benzo[d]imidazol-4-yl)oxy)ethyl)amino)ethan-1-ol]"
3,> 5000 nM,"Cc1cc(O[C@H]2CCNC2)c2nc(N3CCNCC3)n(Cc3cc(C)c(F)c(C)c3)c2c1 [Example 200, (S)-1-(4-fluoro-3,5-dimethylbenzyl)-6-methyl-2-(piperazin-1-yl)-4-(pyrrolidin-3-yloxy)-1H-benzo[d]imidazole]"
4,500 to 1000 nM,"Cc1cc(OCC2CCNCC2)c2nc(N3CCNCC3)n(Cc3cc(C)c(F)c(C)c3)c2c1 [Example 202, 1-(4-fluoro-3,5-dimethylbenzyl)-6-methyl-2-(piperazin-1-yl)-4-(piperidin-4-ylmethoxy)-1H-benzo[d]imidazole]"
